# Experimental data as given in patent US9358249B2, “Use of Pateamine A for the treatment of age-related muscle wasting” (The Regents of the University of California, priority 2008, dated 2016).
# Assays:
# [1] = target: T1, human eIF4A (Homo sapiens, UniProt P60842); experiment: Proteolysis protection in human HeLa cell lysate by resveratrol (western blotting); format: binding; conditions: 100 μM resveratrol
# T1 construct: endogenous in cells; host or cells: HeLa cell lysate
# Procedure: (§1) FIGS. 1A-1C illustrate the identification of eIF4A as the molecular target of resveratrol. FIG. 1A: Chemical structure of resveratrol. FIG. 1B: Lysate from untreated yeast cells or Hela cell were incubated with resveratrol or vehicle for 1 hr at room temperature, followed by proteolysis, SDS-PAGE, and silver staining. Mass spectrometry identifies the protected protein is eIF4A. FIG. 1C: Western blotting confirms the protection of yeast (TAP-tagged Tifi) eIF4A by resveratrol.
# [2] = system: eukaryotic translation (rabbit reticulocyte lysate system); experiment: In vitro translation assay, rabbit reticulocyte lysate system, firefly luciferase mRNA; format: biochemical; conditions: 100 μM resveratrol
# Procedure: The rabbit reticulocyte lysate system was treated with different concentration of resveratrol (0, 1, 10, 50, 100, 500 μM), and the translation of firefly luciferase mRNA was measured with Promega luciferase assay.
# The in vitor translation assay is performed with the rabbit reticulocyte lysate system. We added different concentrations of resveratrol into the in vitor translation reaction, and used the translation of firefly luciferase mRNA as a readout. […] Translation is reduced by >70% at 100 μM resveratrol, the concentration at which we previously detected eIF4A protection in HeLa cell lysate.
# [3] = system: HCV IRES mediated (eIF4A-independent) translation of firefly luciferase; experiment: Bicistronic dual-luciferase reporter pcDNA/Ren/HCV/FF in HEK 293 cells, firefly luciferase; format: cell-based; conditions: 0-100 μM, 33 hour after transfection
# Procedure: (§2) FIG. 3A: Schematic diagram of the bicistronic dual-luciferase mRNA Ren-HCV-FF. FIG. 3B: Resveratrol inhibits cap-dependent translation initiation of Renilla luciferase but not eIF4A-independent translation of firefly luciferase. HEK 293 cells transfected with plasmid pcDNA/REN/HCV/FF are treated with different concentration of resveratrol (0, 0.1, 1, 10, 50, 100 μM). Translation of reporter genes was measured 33 hour after transfection using the Dual-Glo luciferase assay (Promega) with an Analyst HT plate reader (Molecular Devices).
# (§3) One such illustrative assay is shown in Example 1.
# [4] = system: cap-dependent (eIF4A-requiring) translation of renilla luciferase; experiment: Bicistronic dual-luciferase reporter pcDNA/Ren/HCV/FF in HEK 293 cells, Renilla luciferase; format: cell-based; conditions: 0-100 μM, 33 hour after transfection
# Procedure: as §2, §3
# [5] = target: T2, eukaryotic initiation factor 4A (eIF4A), yeast (TAP tagged Tif1) (Saccharomyces cerevisiae, UniProt P10081); experiment: Proteolysis protection of yeast cell lysate proteins by resveratrol (silver staining, mass spectrometry, western blotting); format: binding
# T2 construct: We performed proteolysis on yeast cell lysates that had been incubated with resveratrol or ethanol; TAP; endogenous in cells; host or cells: yeast cells (lysate); strain expressing TAP-tagged Tif1 for the western blot
# T2 sequence (P10081 1-395): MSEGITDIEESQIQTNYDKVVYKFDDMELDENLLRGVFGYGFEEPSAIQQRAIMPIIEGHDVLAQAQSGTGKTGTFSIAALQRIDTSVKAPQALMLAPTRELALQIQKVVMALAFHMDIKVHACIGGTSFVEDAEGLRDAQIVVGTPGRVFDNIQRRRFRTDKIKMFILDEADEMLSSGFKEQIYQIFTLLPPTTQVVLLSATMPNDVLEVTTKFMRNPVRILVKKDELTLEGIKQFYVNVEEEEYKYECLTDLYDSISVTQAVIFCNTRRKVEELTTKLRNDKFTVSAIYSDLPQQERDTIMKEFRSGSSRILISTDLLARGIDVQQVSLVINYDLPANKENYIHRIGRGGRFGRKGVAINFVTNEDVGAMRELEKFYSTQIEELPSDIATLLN
# Procedure: as §1
# We performed proteolysis on yeast cell lysates that had been incubated with resveratrol or ethanol (vehicle control).
# T1 sequence (P60842 whole entry): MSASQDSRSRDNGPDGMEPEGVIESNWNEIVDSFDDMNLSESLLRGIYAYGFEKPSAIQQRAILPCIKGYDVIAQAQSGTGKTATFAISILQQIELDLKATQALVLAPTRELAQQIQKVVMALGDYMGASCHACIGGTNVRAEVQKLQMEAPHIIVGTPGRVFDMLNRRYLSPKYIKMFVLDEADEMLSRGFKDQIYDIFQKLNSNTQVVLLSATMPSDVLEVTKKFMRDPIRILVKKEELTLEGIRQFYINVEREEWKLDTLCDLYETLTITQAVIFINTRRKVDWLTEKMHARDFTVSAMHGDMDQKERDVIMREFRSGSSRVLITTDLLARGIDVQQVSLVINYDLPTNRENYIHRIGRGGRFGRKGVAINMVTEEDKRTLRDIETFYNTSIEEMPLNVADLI
smiles,measurement,setting,value
Oc1ccc(C=Cc2cc(O)cc(O)c2)cc1 [resveratrol],"protected band after proteolysis, confirmed as human eIF4A by western blotting",[1],protected band of similar size was detected
same,Translation reduced (firefly luciferase signal),[2],> 70%
same,expression of firefly luciferase (HCV IRES),[3],unaffected
same,expression of renilla luciferase (cap-dependent),[4],inhibited in a dose-dependent manner
same,"eIF4A in protected bands (15 and 25 kDa) after proteolysis, mass spectrometry",[5]; yeast cell lysate incubated with resveratrol vs ethanol vehicle,enriched in the resveratrol-treated sample
same,"protection of yeast (TAP tagged Tif1) eIF4A, western blotting","[5]; yeast lysate, proteolysis",further confirmed by western blotting
